Data published in patent publication US20170081368A1, “PEPTIDES AS OXYTOCIN AGONISTS” (Hoffmann-La Roche Inc., priority 2014, published 2017).
Where a SMILES comes first, the peptide text is derived from it.

Experiments:
[1] = target: T1, human Oxytocin (OTR) receptor (Homo sapiens, UniProt P30559); test: Calcium flux assay (FLIPR) in CHO cells expressing human OTR; format: cell-based; conditions: for Emax: CHO, read-out: hOT efficacy; for Emax / hOT efficacy: maximum response normalized to endogenous full agonist = 100%; for EC50: agonist mode, CHO cells, calcium flux FLIPR, read-out: hOT EC50
T1 construct: expressed in transfected cells
T1 sequence (P30559 1-389): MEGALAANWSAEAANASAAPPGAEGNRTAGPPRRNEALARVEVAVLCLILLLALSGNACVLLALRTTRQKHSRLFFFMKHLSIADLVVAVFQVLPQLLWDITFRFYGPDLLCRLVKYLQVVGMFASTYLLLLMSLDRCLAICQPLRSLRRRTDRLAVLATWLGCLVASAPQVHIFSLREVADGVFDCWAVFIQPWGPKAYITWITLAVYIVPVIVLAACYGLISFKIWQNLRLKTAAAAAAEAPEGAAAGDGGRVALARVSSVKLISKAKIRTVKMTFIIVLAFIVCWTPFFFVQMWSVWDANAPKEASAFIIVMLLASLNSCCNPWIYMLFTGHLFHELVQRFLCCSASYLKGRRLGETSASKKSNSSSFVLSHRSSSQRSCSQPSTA
From the text: (§1) Chines Hamster Ovary (CHO) cells were transfected with expression plasmids encoding either the human Vla, the human Oxytocin (OTR) or the humanV2 receptor, the later in combination with the chimeric Gqs5 G protein to redirect the signal to Calcium flux. Stable cells were cloned by limiting dilution to yield monoclonal cell lines expressing either human Vla, human V2+Gqs5 or human OTR receptors and selected based on functional responses detected on a fluorometric imaging plate reader (FLIPR) detecting Calcium flux in the cell after receptor activation. The stable cell lines were grown in F-12 K Nutrient Mixture (Kaighns Modification), containing 10% foetal bovine serum (FBS), 1% penicillin-streptomycin, 1% L-glutamate, 200 ug/ml Geneticin at 37° C. in a 10% CO2 incubator at 95% humidity.
(§2) Calcium Flux Assays Using Fluorescent Imaging (Fluorometric Imaging Plate Reader, FLIPR)
(§3) On the afternoon before the assay, cells were plated at a density of 50,000 cells/well into black 96 well plates with clear bottoms to allow cell inspection and fluorescence measurements from the bottom of each well. The density of cells was sufficient to yield a confluent monolayer the next day. Hanks balanced salt solution, without phenol red, containing 20 mM HEPES (pH 7.3) and 2.5 mM probenecid (assay buffer) was prepared fresh for each experiment. Compound dilutions were made using a Beckman Biomek 2000 laboratory automation workstation, in assay buffer containing 1% DMSO. The dye-loading buffer consisted of a final concentration of 2 μM Fluo-4-AM (dissolved in DMSO and pluronic acid) in assay buffer. The existing culture media was removed from the wells and 100 μl of the dye-loading buffer was added to each well and incubated for approximately 60 min at 37° C. in a 5% CO2 incubator at 95% humidity. Once dye-loaded, the cells were washed thoroughly on an Embla cell washer with the assay buffer to remove any unincorporated dye. Exactly 100 μl assay buffer was left in each well.
(§4) Each 96 well plate containing dye-loaded cells was placed into the FLIPR machine and the laser intensity set to a suitable level to detect low basal fluorescence. To test compounds as agonists, 25 μl diluted compound was added to the plate 10 seconds into the fluorescent measurements and fluorescent response was recorded for 5 minutes. The fluorescence data was normalized to the endogenous full agonist dose-response set at 100% for the maximum response and 0% for the minimum. Each agonist concentration-response curve was constructed using a four parameter logistic equation with Microsoft Excel XLFit as follows: Y=Minimum+((Maximum−Minimum)/(1+10^(LogEC50−X)nH)), where y is the % normalized fluorescence, minimum is the minimum y, maximum is the maximum y, log EC50 is the log10 concentration which produces 50% of the maximum induced fluorescence, x is the log10 of the concentration of the agonist compound and H is the slope of the curve (the Hill Coefficient). The maximum value gives the efficacy of the agonist test compound in percentage. The concentration of agonist that produced a half-maximal response is represented by the EC50 value, the logarithm of which yielded the pEC50 value.

[2] = target: T2, human V2 receptor (Homo sapiens, UniProt P30518); test: Calcium flux assay (FLIPR) in CHO cells expressing human V2+Gqs5; format: cell-based; conditions: for Emax: CHO, maximum response normalized to endogenous full agonist = 100%, read-out: hV2 efficacy; for EC50: agonist mode, CHO cells with chimeric Gqs5, calcium flux FLIPR, read-out: hV2 EC50
T2 construct: expressed in transfected cells
T2 sequence (P30518 whole entry): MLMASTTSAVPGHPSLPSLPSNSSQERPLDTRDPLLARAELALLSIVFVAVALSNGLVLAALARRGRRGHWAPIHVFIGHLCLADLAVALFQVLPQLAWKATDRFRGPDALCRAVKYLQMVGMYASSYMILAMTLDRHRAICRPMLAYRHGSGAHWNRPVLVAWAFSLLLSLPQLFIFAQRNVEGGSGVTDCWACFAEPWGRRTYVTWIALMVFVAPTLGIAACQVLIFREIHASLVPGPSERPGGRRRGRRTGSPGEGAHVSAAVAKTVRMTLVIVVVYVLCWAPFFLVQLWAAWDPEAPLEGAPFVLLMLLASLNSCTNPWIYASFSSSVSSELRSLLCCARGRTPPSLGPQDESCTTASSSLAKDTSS
From the text: as §1, §2, §3, §4

Molecule `CC[C@H](C)[C@@H]1NC(=O)[C@H](Cc2ccc(O)cc2)NC(=O)CCS(=O)(=O)CC[C@@H](C(=O)N(C)CC(=O)N[C@@H](Cc2ccc(O)cc2)C(=O)NCC(N)=O)NC(=O)[C@H](CC(N)=O)NC(=O)[C@H](CCC(N)=O)NC1=O` [Example 17] (HELM PEPTIDE1{Y.I.Q.N.[O=C([C@H](CCS(=O)(=O)CCC(=O)[*:3])N[*:1])[*:2]].[Sar].Y.G.[am]}$PEPTIDE1,PEPTIDE1,1:R1-5:R3$$$V2.0) has an Emax [1] of 105% and an EC50 [1] of 2.2 nM.
`CC[C@H](C)[C@@H]1NC(=O)[C@H](Cc2ccc(O)cc2)NC(=O)CCS(=O)(=O)CC[C@@H](C(=O)N(C)CC(=O)N[C@@H](CO)C(=O)NCC(N)=O)NC(=O)[C@H](CC(N)=O)NC(=O)[C@H](CCC(N)=O)NC1=O` [Example 18] (HELM PEPTIDE1{Y.I.Q.N.[O=C([C@H](CCS(=O)(=O)CCC(=O)[*:3])N[*:1])[*:2]].[Sar].S.G.[am]}$PEPTIDE1,PEPTIDE1,1:R1-5:R3$$$V2.0; C-terminus assumed; bridges inferred) was tested, and the Emax [1] was 102%.
With `CC[C@H](C)[C@@H]1NC(=O)[C@H](Cc2ccc(O)cc2)NC(=O)CCS(=O)(=O)CC[C@@H](C(=O)N(C)CC(=O)N[C@@H](C)C(=O)NCC(N)=O)NC(=O)[C@H](CC(N)=O)NC(=O)[C@H](CCC(N)=O)NC1=O` [Example 19] (HELM PEPTIDE1{Y.I.Q.N.[O=C([C@H](CCS(=O)(=O)CCC(=O)[*:3])N[*:1])[*:2]].[Sar].A.G.[am]}$PEPTIDE1,PEPTIDE1,1:R1-5:R3$$$V2.0) the Emax [1] was 110% and the EC50 [1] was 1.4 nM.
`CC[C@H](C)[C@@H]1NC(=O)[C@H](Cc2ccc(O)cc2)NC(=O)CCS(=O)(=O)CC[C@@H](C(=O)N(C)CC(=O)N[C@@H](CN)C(=O)NCC(N)=O)NC(=O)[C@H](CC(N)=O)NC(=O)[C@H](CCC(N)=O)NC1=O` [Example 20] (HELM PEPTIDE1{Y.I.Q.N.[O=C([C@H](CCS(=O)(=O)CCC(=O)[*:3])N[*:1])[*:2]].[Sar].[NC[C@H](N[*:1])C(=O)[*:2]].G.[am]}$PEPTIDE1,PEPTIDE1,1:R1-5:R3$$$V2.0) showed an Emax [1] of 113% and an EC50 [1] of 12.9 nM.
For `CC[C@H](C)[C@@H]1NC(=O)[C@H](Cc2ccc(O)cc2)NC(=O)CCS(=O)(=O)CC[C@@H](C(=O)N(C)CC(=O)N[C@H](C(=O)NCC(N)=O)C2CCCCC2)NC(=O)[C@H](CC(N)=O)NC(=O)[C@H](CCC(N)=O)NC1=O` [Example 21] (HELM PEPTIDE1{Y.I.Q.N.[O=C([C@H](CCS(=O)(=O)CCC(=O)[*:3])N[*:1])[*:2]].[Sar].[O=C([C@@H](N[*:1])C1CCCCC1)[*:2]].G.[am]}$PEPTIDE1,PEPTIDE1,1:R1-5:R3$$$V2.0), the Emax [1] was 117% and the EC50 [1] was 0.4 nM.
`CC[C@H](C)[C@@H]1NC(=O)[C@H](Cc2ccc(O)cc2)NC(=O)CCS(=O)(=O)CC[C@@H](C(=O)N(C)CC(=O)N[C@@](C)(CC(C)C)C(=O)NCC(N)=O)NC(=O)[C@H](CC(N)=O)NC(=O)[C@H](CCC(N)=O)NC1=O` [Example 22] (HELM PEPTIDE1{Y.I.Q.N.[O=C([C@H](CCS(=O)(=O)CCC(=O)[*:3])N[*:1])[*:2]].[Sar].[CC(C)C[C@](C)(N[*:1])C(=O)[*:2]].G.[am]}$PEPTIDE1,PEPTIDE1,1:R1-5:R3$$$V2.0) showed an Emax [1] of 109% and an EC50 [1] of 2.5 nM.
`CCC[C@H](NC(=O)[C@@H]1CCS(=O)(=O)CCC(=O)N[C@@H](Cc2ccc(O)cc2)C(=O)N[C@@H]([C@@H](C)CC)C(=O)N[C@@H](CCC(N)=O)C(=O)N[C@@H](CC(N)=O)C(=O)N1)C(=O)N[C@@H](CC(C)C)C(=O)NCC(N)=O` [Example 23] (HELM PEPTIDE1{Y.I.Q.N.[O=C([C@H](CCS(=O)(=O)CCC(=O)[*:3])N[*:1])[*:2]].[Nva].L.G.[am]}$PEPTIDE1,PEPTIDE1,1:R1-5:R3$$$V2.0) gave an EC50 [1] of 23 nM and a hOT efficacy [1] of 123%.
Molecule `CCCC[C@H](NC(=O)[C@@H]1CCS(=O)(=O)CCC(=O)N[C@@H](Cc2ccc(O)cc2)C(=O)N[C@@H]([C@@H](C)CC)C(=O)N[C@@H](CCC(N)=O)C(=O)N[C@@H](CC(N)=O)C(=O)N1)C(=O)N[C@@H](CC(C)C)C(=O)NCC(N)=O` [Example 24] (HELM PEPTIDE1{Y.I.Q.N.[O=C([C@H](CCS(=O)(=O)CCC(=O)[*:3])N[*:1])[*:2]].[Nle].L.G.[am]}$PEPTIDE1,PEPTIDE1,1:R1-5:R3$$$V2.0) has an EC50 [1] of 40 nM and a hOT efficacy [1] of 114%.
`CC[C@H](C)[C@@H]1NC(=O)[C@H](Cc2ccc(O)cc2)NC(=O)CCS(=O)(=O)CC[C@@H](C(=O)N[C@@H](CO)C(=O)N[C@@H](CC(C)C)C(=O)NCC(N)=O)NC(=O)[C@H](CC(N)=O)NC(=O)[C@H](CCC(N)=O)NC1=O` [Example 25] (HELM PEPTIDE1{Y.I.Q.N.[O=C([C@H](CCS(=O)(=O)CCC(=O)[*:3])N[*:1])[*:2]].S.L.G.[am]}$PEPTIDE1,PEPTIDE1,1:R1-5:R3$$$V2.0) was tested, and the EC50 [1] was 16 nM and the hOT efficacy [1] was 137%.
For `CC[C@H](C)[C@@H]1NC(=O)[C@H](Cc2ccc(O)cc2)NC(=O)CCS(=O)(=O)CC[C@@H](C(=O)N[C@@H](CCO)C(=O)N[C@@H](CC(C)C)C(=O)NCC(N)=O)NC(=O)[C@H](CC(N)=O)NC(=O)[C@H](CCC(N)=O)NC1=O` [Example 26] (HELM PEPTIDE1{Y.I.Q.N.[O=C([C@H](CCS(=O)(=O)CCC(=O)[*:3])N[*:1])[*:2]].[O=C([C@H](CCO)N[*:1])[*:2]].L.G.[am]}$PEPTIDE1,PEPTIDE1,1:R1-5:R3$$$V2.0), the Emax [1] was 140% and the EC50 [1] was 7 nM.
`CC[C@H](C)[C@@H]1NC(=O)[C@H](Cc2ccc(O)cc2)NC(=O)CCS(=O)(=O)CC[C@@H](C(=O)N(CC(=O)N[C@H](C(=O)NCC(N)=O)C(C)C)C2CC2)NC(=O)[C@H](CC(N)=O)NC(=O)[C@H](CCC(N)=O)NC1=O` [Example 29] (HELM PEPTIDE1{Y.I.Q.N.[O=C([C@H](CCS(=O)(=O)CCC(=O)[*:3])N[*:1])[*:2]].[O=C(CN(C1CC1)[*:1])[*:2]].V.G.[am]}$PEPTIDE1,PEPTIDE1,1:R1-5:R3$$$V2.0) showed an Emax [1] of 105%, an EC50 [1] of 0.5 nM and an Emax [2] of 143%. The EC50 [2] was 3340 nM.
`CC[C@H](C)[C@@H]1NC(=O)[C@H](Cc2ccc(O)cc2)NC(=O)CCS(=O)(=O)CC[C@@H](C(=O)N(CC(=O)NC(C)(C)C(=O)NCC(N)=O)C2CC2)NC(=O)[C@H](CC(N)=O)NC(=O)[C@H](CCC(N)=O)NC1=O` [Example 30] (HELM PEPTIDE1{Y.I.Q.N.[O=C([C@H](CCS(=O)(=O)CCC(=O)[*:3])N[*:1])[*:2]].[O=C(CN(C1CC1)[*:1])[*:2]].[Aib].G.[am]}$PEPTIDE1,PEPTIDE1,1:R1-5:R3$$$V2.0) showed an EC50 [1] of 1 nM, a hOT efficacy [1] of 97% and an Emax [2] of 131%. For the same molecule, the EC50 [2] was 6340 nM.
`CC[C@H](C)[C@H](NC(=O)CN(C(=O)[C@@H]1CCS(=O)(=O)CCC(=O)N[C@@H](Cc2ccc(O)cc2)C(=O)N[C@@H]([C@@H](C)CC)C(=O)N[C@@H](CCC(N)=O)C(=O)N[C@@H](CC(N)=O)C(=O)N1)C1CC1)C(=O)NCC(N)=O` [Example 31] (HELM PEPTIDE1{Y.I.Q.N.[O=C([C@H](CCS(=O)(=O)CCC(=O)[*:3])N[*:1])[*:2]].[O=C(CN(C1CC1)[*:1])[*:2]].I.G.[am]}$PEPTIDE1,PEPTIDE1,1:R1-5:R3$$$V2.0) showed an Emax [1] of 115%, an EC50 [1] of 0.4 nM and an Emax [2] of 150%. For the same molecule, the EC50 [2] was 2940 nM.
